Assays:
CXCR3 [1] = biological target: T1, CXCR3 (Homo sapiens, UniProt P49682); assay: biochemical; format: binding; design: expressed in transfected cells; host or cells: CHO cells (membrane preparation)
T1 sequence (P49682 1-368): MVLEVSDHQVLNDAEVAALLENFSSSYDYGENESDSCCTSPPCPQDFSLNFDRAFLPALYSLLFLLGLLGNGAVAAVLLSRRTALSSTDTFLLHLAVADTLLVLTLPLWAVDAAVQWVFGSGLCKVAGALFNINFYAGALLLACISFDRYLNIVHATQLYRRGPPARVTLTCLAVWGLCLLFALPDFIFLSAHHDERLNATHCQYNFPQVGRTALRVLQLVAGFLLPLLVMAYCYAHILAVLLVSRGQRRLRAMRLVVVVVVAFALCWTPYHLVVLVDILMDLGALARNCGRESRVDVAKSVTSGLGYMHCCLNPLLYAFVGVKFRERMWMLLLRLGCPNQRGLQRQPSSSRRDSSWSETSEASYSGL
Method: a) CXCR3 Membrane Binding Assay
A ligand binding assay is used to identify inhibitors of I-TAC binding to CXCR3 expressing membranes. Cell membranes are prepared from CHO cells transfected with human CXCR3. The binding of the ^125I labeled CXCR3 ligand e.g. I-TAC (CXCL11) to CXCR3 is assessed using the Scintillation Proximity Assay (SPA) technology (Amersham Pharmacia Biotech). Buffer or serial dilutions of compound are incubated for 2 hours at room temperature with labeled CXCR3 ligand (e.g. I-TAC), CXCR3 expressing membranes and WGA coated PVT beads. The plates are then centrifuged and counted in a Topcount (Packard) instrument. The data are reported as the concentration of compound required to achieve 50% inhibition of ^125I ligand binding.

CXCR3 [2] = biological target: T1, CXCR3; assay: cell-based; design: expressed in transfected cells; host or cells: L1.2 cells (mouse pre-B cell line)
Method: b) CXCR3 Functional Assay—Ca^2+ Mobilization
CXCR3 ligand-induced Ca^2+ mobilization is assessed in CXCR3 transfected L1.2 cells (a mouse pre B cell line). For this, cells are loaded with the Ca^2+-sensitive fluorochrome Fluo-4 (Molecular Probes). After washing, the cells are pre-incubated with low molecular weight inhibitors for 2 h at room temperature. The transient increase in intracellular Ca^2+ after the addition of the CXCR3 ligand (e.g. I-TAC) is monitored in a fluorescence image plate reader (FLIPR) instrument. The inhibition of CXCR3 ligand induced Ca^2+ mobilization in the presence of CXCR3 antagonists is reported as IC50 values i.e. the concentration of compound which reduces the maximal Ca^2+ response to 50%.

CXCR3 [3] = biological target: T1, CXCR3; assay: CXCR3 functional assay - chemotaxis; format: cell-based; design: expressed in transfected cells; host or cells: L1.2 cells (mouse pre-B cell line); conditions: CXCR3 transfected L-1.2 cells; I-TAC; 4 h at 37° C.; read-out: IC50, concentration which leads to a reduction of migrated cells by 50%
Method: c) CXCR3 Functional Assay—Chemotaxis
The directed cell migration induced by CXCR3 ligands e.g. I-TAC is assessed using 96-well disposable chemotaxis chambers (Multiscreen MIC, Costar) with polycarbonate membranes containing pores of 5 μm diameter. Chemokine (e.g. I-TAC) is placed in the bottom well of the chamber and cells (e.g. CXCR3 transfected L-1.2 cells) are placed in the top compartment of the chemotaxis chamber. Cell migration across the porous membrane is allowed for 4 h at 37° C. Cells migrated from the top compartment to the bottom compartment are quantified by flow cytometry. When LMW inhibitors are tested, compounds are added to both compartments at the identical concentrations; Serial dilutions of compounds are tested to assess their inhibitory effect on CXCR3 dependent cell migration. The concentration of LMW CXCR3 inhibitors which leads to a reduction of migrated cells by 50% is reported as IC50. In this assay, the compounds of formula I have an IC50 value from 1 μM-1 nM.

[4] = membranes of CHO cells transfected with human CXCR3, 125I I-TAC (CXCL11), 2 hours at room temperature, read-out: IC50, concentration of compound required to achieve 50% inhibition of 125I ligand binding
[5] = CXCR3 transfected L1.2 cells (mouse pre B cell line), CXCR3 ligand (e.g. I-TAC), pre-incubation 2 h at room temperature, read-out: IC50, concentration of compound which reduces the maximal Ca2+ response to 50%

SMILES | IC50 (CXCR3 [1]) [nM] | IC50 (CXCR3 [2]) [nM] | IC50 (CXCR3 [1]; [4]) [nM] | IC50 (CXCR3 [2]; [5]) [nM] | IC50 (CXCR3 [3]) [nM]
CC(C)OC(=O)Cn1cc2c3c(cccc31)C1=C[C@@H](C(=O)N3CCCC3)CN(C(=O)Nc3ccccc3)[C@@H]1C2 [Example 79, [(6aR,9R)-7-Phenylcarbamoyl-9-(pyrrolidine-1-carbonyl)-6a,7,8,9-tetrahydro-6H-indolo[4,3-fg]quinolin-4-yl]-acetic acid isopropyl ester] | 145 | 53 |  |  | 
O=C([C@@H]1C=C2c3cccc4[nH]cc(c34)C[C@H]2N(C(=O)Nc2ccccc2F)C1)N1CCCC1 [Example 59] |  |  | 43 | 20 | 
O=C([C@@H]1C=C2c3cccc4[nH]cc(c34)C[C@H]2N(C(=O)Nc2ccccc2)C1)N1CCC1 [Example 23] |  |  | 61 | 8 | 
O=C([C@@H]1C=C2c3cccc4[nH]cc(c34)C[C@H]2N(C(=O)Nc2ccccc2)C1)N1CCOCC1 [Example 43] | 23 | 16 |  |  | 75

From patent publication US7666877B2, “Ergoline derivatives” (priority 2005, dated 2010)
